These results are taken from ChEMBL document CHEMBL1141991, “Functionalized dendrimers as endotoxin sponges” (Bioorg Med Chem Lett, 2005).

The species named for test [1] is Mus musculus. Put plainly: Effective dose against lipopolysaccharide in BC fluorescenced murine macrophages J774A. The format is functional.
The nature of test [2]: Inhibitory concentration against lipopolysaccharide in BC fluorescenced murine macrophages J774A. It counts as functional, Mus musculus.

POLYMYXIN B [listing 1 of 2 here] came in with an ED50 in test [1] of 0.31 µM.

The term IC50 denotes the concentration that gives 50% inhibition. The sequence POLYMYXIN B [listing 2 of 2 here] came in with an IC50 in test [2] of 210 µM.
